The target in one assay is T1, human androgen receptor (Homo sapiens, UniProt P10275).
T1 construct: expressed in transfected cells; host or cells: HEK293
T1 sequence (P10275 1-920): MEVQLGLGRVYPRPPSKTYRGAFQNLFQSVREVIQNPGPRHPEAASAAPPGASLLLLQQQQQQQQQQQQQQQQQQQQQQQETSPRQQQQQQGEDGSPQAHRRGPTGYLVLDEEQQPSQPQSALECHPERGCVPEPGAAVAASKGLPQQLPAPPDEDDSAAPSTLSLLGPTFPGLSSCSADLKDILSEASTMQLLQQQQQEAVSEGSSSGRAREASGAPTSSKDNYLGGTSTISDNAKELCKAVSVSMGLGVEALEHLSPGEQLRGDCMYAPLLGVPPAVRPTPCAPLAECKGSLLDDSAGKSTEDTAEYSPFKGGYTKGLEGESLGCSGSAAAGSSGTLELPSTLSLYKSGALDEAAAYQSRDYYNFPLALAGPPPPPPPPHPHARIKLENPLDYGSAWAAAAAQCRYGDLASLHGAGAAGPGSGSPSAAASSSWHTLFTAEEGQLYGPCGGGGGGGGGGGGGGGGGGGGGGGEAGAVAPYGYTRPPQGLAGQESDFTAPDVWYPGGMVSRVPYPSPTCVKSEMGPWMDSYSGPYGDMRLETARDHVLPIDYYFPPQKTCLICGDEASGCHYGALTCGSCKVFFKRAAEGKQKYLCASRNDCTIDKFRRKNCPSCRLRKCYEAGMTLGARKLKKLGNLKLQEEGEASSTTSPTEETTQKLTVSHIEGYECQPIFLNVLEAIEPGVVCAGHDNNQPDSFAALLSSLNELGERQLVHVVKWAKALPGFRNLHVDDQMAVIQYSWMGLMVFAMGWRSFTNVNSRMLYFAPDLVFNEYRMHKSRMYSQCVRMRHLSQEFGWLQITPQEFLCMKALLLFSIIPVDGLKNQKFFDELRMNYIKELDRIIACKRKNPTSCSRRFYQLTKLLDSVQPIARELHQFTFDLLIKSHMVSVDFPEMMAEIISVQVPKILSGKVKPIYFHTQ
As to the kind of experiment: Reporter assay of an androgen receptor responsive sequence (luciferase, transiently transfected HEK293 cells). Type of assay: cell-based. The settings on record: 24 hours incubation, relative to activity of 100 nM DHT, read-out: AR transcriptive activity (pEC50) (converted). In a few lines:
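HEK293 cells transiently transfected for 3 h with ARE-firefly luciferase, full-length human AR and TK-Renilla plasmids, then exposed to compound for 24 h at 37 °C in 5% charcoal-treated FBS/DMEM. Dual-Glo luminescence read; pEC50 from 4-parameter fit relative to 100 nM DHT.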
(In general: Reporter assays use an easily measured gene product as a stand-in for the process of interest.)

The target of assay [1] is T2, androgen receptor (AR-LBD) (Rattus norvegicus, UniProt P15207).
T2 construct: 5 μL of 2×AR-LBD/Fluoromone AL Red Complex contained in the kit; purchased Invitrogen
T2 sequence (P15207 651-882 limits assumed): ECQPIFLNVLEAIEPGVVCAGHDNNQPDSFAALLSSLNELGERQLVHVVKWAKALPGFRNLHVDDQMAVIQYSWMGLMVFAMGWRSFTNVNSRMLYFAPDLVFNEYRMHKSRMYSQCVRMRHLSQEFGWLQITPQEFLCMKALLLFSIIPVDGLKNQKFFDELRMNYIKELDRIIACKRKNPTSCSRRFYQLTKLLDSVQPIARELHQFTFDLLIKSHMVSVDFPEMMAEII
As to the kind of experiment: Evaluation of androgen receptor affinity (PolarScreen Androgen Receptor Competitor Assay Kit, Red; fluorescence polarization). Particulars: 22° C. for 5 hours, relative to binding rate of 1 μM DHT, read-out: AR affinity (pEC50) (converted). The procedure, abridged:
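Fluorescence polarization read-out after 5 h at 22° C of compound with a red-fluorophore-labelled AR-LBD complex. Displacement is scaled against 1 μM DHT, and the log reciprocal of the concentration reaching half that effect gives pEC50 via four-parameter curve fitting.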

Take `Cc1sc(N(CCc2ccc(OC(F)F)cc2)Cc2nc(C3CC3)no2)nc1C(=O)NS(C)(=O)=O` [Compound 162, 2-[(3-cyclopropyl-1,2,4-oxadiazol-5-yl)methyl-[2-[4-(difluoromethoxy)phenyl]ethyl]amino]-5-methyl-N-methylsulfonyl-thiazole-4-carboxamide]: the figures for the EC50 (at human androgen receptor; in assay [1]) were 1000 nM and 158 nM, respectively.
On the same counts, the results for `COCCCS(=O)(=O)NC(=O)c1nc(N(Cc2cnc(C(F)(F)F)c(OC)c2)c2ccc(C#N)cc2)sc1C` [Compound 532, 2-[4-cyano-N-[[5-methoxy-6-(trifluoromethyl)-3-pyridyl]methyl]anilino]-N-(3-methoxypropylsulfonyl)-5-methyl-thiazole-4-carboxamide] are 1580 nM and 200 nM.
The like results for `Cc1sc(N(Cc2ccc(Cl)cc2C#N)c2ccc(C#N)cc2)nc1C(=O)NS(C)(=O)=O` [Example 184, 2-[N-[(4-chloro-2-cyano-phenyl)methyl]-4-cyano-anilino]-5-methyl-N-methylsulfonyl-thiazole-4-carboxamide] were, in that order, above 10000 nM and 501 nM.
The like results for `Cc1sc(N(Cc2ccc(S(C)(=O)=O)cc2)c2ccc(C#N)cc2)nc1C(=O)NS(C)(=O)=O` [Compound 12, 2-[4-cyano-N-[(4-methylsulfonylphenyl)methyl]anilino]-5-methyl-N-methylsulfonyl-thiazole-4-carboxamide] were, in that order, above 10000 nM and 316 nM.
Turning to `Cc1sc(N(Cc2ccc(C(F)(F)F)c(F)c2)c2ccc(C#N)cc2)nc1C(=O)NS(C)(=O)=O` [Example 167, 2-[4-cyano-N-[[3-fluoro-4-(trifluoromethyl)phenyl]methyl]anilino]-5-methyl-N-methylsulfonyl-thiazole-4-carboxamide], the EC50 at human androgen receptor is 31.6 nM; in assay [1], 25.1 nM.
The like results for `Cc1sc(N(Cc2ccc(-c3ccc(F)cc3)cc2)c2ccc(C#N)cc2)nc1C(=O)NS(C)(=O)=O` [Compound 141, 2-[4-cyano-N-[[4-(4-fluorophenyl)phenyl]methyl]anilino]-5-methyl-N-methylsulfonyl-thiazole-4-carboxamide] were, in that order, 316 nM and 50.1 nM.
The like results for `CS(=O)(=O)NC(=O)c1nc(N(Cc2ccc(Cl)cc2)c2ccc(C#N)cc2)sc1C1CC1` [Compound 661, 2-[N-[(4-chlorophenyl)methyl]-4-cyano-anilino]-5-cyclopropyl-N-methylsulfonyl-thiazole-4-carboxamide] were, in that order, 501 nM and 15.8 nM.
On the same counts, the results for `Cc1sc(N(CCc2ccc(C#N)cc2)CC2CCCCC2)nc1C(=O)NS(C)(=O)=O` [Compound 716, 2-[2-(4-cyanophenyl)ethyl-(cyclohexylmethyl)amino]-5-methyl-N-methylsulfonyl-thiazole-4-carboxamide] are above 10000 nM and 631 nM.
Regarding `Cc1sc(N(CCc2ccc(Cl)cc2)Cc2ccc(OC(F)(F)F)cc2)nc1C(=O)NS(=O)(=O)C1CC1` [Compound 702, 2-[2-(4-chlorophenyl)ethyl-[[4-(trifluoromethoxy)phenyl]methyl]amino]-N-cyclopropylsulfonyl-5-methyl-thiazole-4-carboxamide], the EC50 at human androgen receptor is above 10000 nM; in assay [1], 200 nM.
As for `CS(=O)(=O)NC(=O)c1nc(N(Cc2ccc3occc3c2)c2ccc(C#N)cc2)sc1Br` [Example 221, 2-[N-(benzofuran-5-ylmethyl)-4-cyano-anilino]-5-bromo-N-methylsulfonyl-thiazole-4-carboxamide], the EC50 on human androgen receptor is 50.1 nM; in assay [1], 39.8 nM.
The like results for `Cc1sc(N(C[C@@H]2CCCC[C@H](O)C2)c2ccc(C#N)cc2)nc1C(=O)NS(C)(=O)=O` (racemic) [Compound 473, 2-[4-cyano-N-[[cis-3-hydroxycycloheptyl]methyl]anilino]-5-methyl-N-methylsulfonyl-thiazole-4-carboxamide] were, in that order, 1260 nM and 631 nM.
